# Legend:
# [1] = system: carrageenin-induced inflammation; assay: Carrageenin-induced inflammation; settings: Rattus norvegicus, ip, read-out: ED50, inhibition of carrageenin-induced inflammation
# plasmin = settings: A. Okano et al, J. Med. Chem., Vol. 15, No. 3, 247 (1972); cited from earlier work
# [2] = system: ileum of a guinea pig, sensitized with egg albumin; assay: Contraction of ileum of a guinea pig sensitized with egg albumin, antigen-induced; settings: 0.50 μg; with 250 μg/ml egg albumin as antigen
# ileum of a guinea pig = assay: Anti-histamine effect: contraction of ileum induced by histamin dihydrochloride; settings: 1~5 μg; 10^-6 g/ml histamin dihydrochloride
# chymotrypsin = chymotrypsin (Bos taurus, UniProt P00766); assay: Inhibitory effects on chymotrypsin (hydrolysis of N-acetyl-L-tyrosine ethyl ester); type: biochemical; settings: 37° C., 10 minutes; concentration not given
# Method: The compounds of the formula (I) have excellent inhibitory effects on protease. The inhibitory effects were determined by the following methods: Inhibitory effects on the compounds of chymotrypsin were determined according to the method described by M. […] In particular, inhibitory effects of the compounds on hydrolysis of N-acetyl-L-tyrosine ethyl ester by chymotrypsin were examined (incubated at 37° C. for 10 minutes).
# urokinase = urokinase (Homo sapiens, UniProt P00749); assay: Inhibitory effects on urokinase (hydrolysis of N-acetylglycyl lysine methyl ester); type: biochemical; settings: 37° C., 10 minutes; concentration not given
# Method: The compounds of the formula (I) have excellent inhibitory effects on protease. The inhibitory effects were determined by the following methods: Inhibitory effects of the compounds on urokinase were determined according to the method described by A. J. Joeson et al (Throm. […]. 21, 259-272 (1969)). In particular, inhibitory effects of the compounds on hydrolysis of N-acetylglycyl lysine methyl ester by urokinase were determined (incubated at 37° C. for 10 minutes).
# thrombin = thrombin (Bos taurus, UniProt P00735); assay: Inhibitory effects on thrombin (hydrolysis of p-tosylarginine methyl ester); type: biochemical; settings: 37° C., 10 minutes; concentration not given
# Method: The compounds of the formula (I) have excellent inhibitory effects on protease. The inhibitory effects were determined by the following methods:
# Inhibitory effects of the compounds on thrombin were determined according to the method described by M. Muramatsu et al (The Journal of Biochemistry, Volume 65 (1), 17 (1969)). In particular, inhibitory effects of the compounds on hydrolysis of p-tosylarginine methyl ester by thrombin were examined (incubated at 37° C. for 10 minutes).
# Shay ulcers = Shay ulcers (pylorus ligation); type: in vivo, Male Sprague-Dawley strain rats; settings: for Ulcer Grade 0 (number of rats): 0=no lesion; for Ulcer Grade 1 (number of rats): 1=hemorrhagic suffusion; for Ulcer Grade 2 (number of rats): 2=1-5 small ulcers (<3 mm); for Ulcer Grade 3 (number of rats): 3=many small ulcers (more than 5) or 1 ulcer of marked size; for Ulcer Grade 4 (number of rats): 4=many ulcers of marked size; for Ulcer Grade 5 (number of rats): 5=perforated ulcer
# Method: The rats were sacrificed 18 hours later by an overdose of ether and the stomach removed. The stomach was incised along the greater curvature and the surface area of each lesion in forestomach was measured by the naked eye. […] 4=many ulcers of marked size 5=perforated ulcer The test drugs were given intraperitoneally, immediately after pylorus ligation.
# trypsin = target: T1, trypsin (Bos taurus, UniProt P00760); assay: Inhibitory effects on trypsin (hydrolysis of p-tosylarginine methyl ester); type: biochemical; settings: 37° C., 10 minutes; concentration not given
# T1 sequence (P00760 24-246): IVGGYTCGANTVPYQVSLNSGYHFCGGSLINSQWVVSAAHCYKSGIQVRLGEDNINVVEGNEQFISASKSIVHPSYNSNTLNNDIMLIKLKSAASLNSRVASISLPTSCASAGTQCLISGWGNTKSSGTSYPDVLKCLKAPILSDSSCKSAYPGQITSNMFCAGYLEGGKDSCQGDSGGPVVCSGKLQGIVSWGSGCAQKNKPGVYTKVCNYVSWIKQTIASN
# Method: In particular, inhibitory effects of the compounds on hydrolysis of p-tosylarginine methyl ester by trypsin were examined (incubated at 37° C. for 10 minutes).
# acetic acid ulcers = assay: Acetic acid ulcers; type: in vivo, Male Sprague-Dawley strain rats; settings: for Ulcer Grade 1 (number of rats): ulcer area 0-10 mm^2; for Ulcer Grade 2 (number of rats): ulcer area 11-20 mm^2; for Ulcer Grade 3 (number of rats): ulcer area 21-30 mm^2; for Ulcer Grade 4 (number of rats): ulcer area 31-40 mm^2; for Ulcer Grade 5 (number of rats): ulcer area >40 mm^2
# Method: Male Sprague-Dawley strain rats, weighing about 200 g were used. Under ether anesthesia 10% acetic acid solution (0.05 ml) was injected carefully between the serous membrane and the muscle near the pylorus, and the abdomen was closed. Thereafter, the animals were maintained under conditions and administered 1 ml/100 g of each test drug dissolved or suspended in 0.5% carboxymethylcellulose solution p.o. daily×10 starting from the next day of the operation. On the 11th day, the rats were sacrificed under ether anesthesia, and the stomachs were removed. The area of the ulcer was measured and graded into 5 degrees as an ulcer index according to the following method: […]
smiles,measurement,setting,value
N=C(N)NC[C@H]1CC[C@H](C(=O)Oc2ccccc2)CC1,ED50,[1],~200 mg/kg
N=C(N)NCC1CCC(C(=O)O)CC1 (stereo not shown) [4-guanidinomethylcyclohexanecarboxylic acid],anti-plasmin effects,plasmin,little anti-plasmin effects
Cl.N=C(N)NC[C@H]1CC[C@H](C(=O)Oc2ccccc2)CC1 [Compound 3],inhibition of the contraction of the ileum sensitized with egg albumin,[2],inhibited completely
same,inhibition of the contraction of the ileum induced by histamin dihydrochloride,ileum of a guinea pig,inhibited completely
same,Inhibition (%) Chymotrypsin,chymotrypsin,48%
same,Inhibition (%) Urokinase,urokinase,52%
same,Inhibition (%) Thrombin,thrombin,30%
same,Ulcer Grade 0 (number of rats),Shay ulcers; 400 mg/kg i.p.,11
same,Ulcer Grade 1 (number of rats),Shay ulcers; 400 mg/kg i.p.,4
same,Ulcer Grade 2 (number of rats),Shay ulcers; 400 mg/kg i.p.,5
same,Ulcer Grade 3 (number of rats),Shay ulcers; 400 mg/kg i.p.,0
same,Ulcer Grade 4 (number of rats),Shay ulcers; 400 mg/kg i.p.,0
same,Ulcer Grade 5 (number of rats),Shay ulcers; 400 mg/kg i.p.,0
same,Inhibition (%) Trypsin,trypsin,42%
"Cl.NC[C@H]1CC[C@H](C(=O)Oc2ccc(CCC(=O)O)cc2)CC1 [Compound A, 4(2hydroxycarbonylethyl)phenyl trans4-aminomethylcyclohexanecarboxylate hydrochloride, reference compound]",Inhibition (%) Chymotrypsin,chymotrypsin,0%
same,Inhibition (%) Urokinase,urokinase,32%
same,Inhibition (%) Thrombin,thrombin,30%
same,Ulcer Grade 0 (number of rats),Shay ulcers; 150 mg/kg i.p.,2
same,Ulcer Grade 1 (number of rats),Shay ulcers; 150 mg/kg i.p.,0
same,Ulcer Grade 2 (number of rats),Shay ulcers; 150 mg/kg i.p.,3
same,Ulcer Grade 3 (number of rats),Shay ulcers; 150 mg/kg i.p.,1
same,Ulcer Grade 4 (number of rats),Shay ulcers; 150 mg/kg i.p.,4
same,Ulcer Grade 5 (number of rats),Shay ulcers; 150 mg/kg i.p.,0
same,Ulcer Grade 0 (number of rats),Shay ulcers; 300 mg/kg i.p.,6
same,Ulcer Grade 1 (number of rats),Shay ulcers; 300 mg/kg i.p.,0
same,Ulcer Grade 2 (number of rats),Shay ulcers; 300 mg/kg i.p.,0
same,Ulcer Grade 3 (number of rats),Shay ulcers; 300 mg/kg i.p.,1
same,Ulcer Grade 4 (number of rats),Shay ulcers; 300 mg/kg i.p.,2
same,Ulcer Grade 5 (number of rats),Shay ulcers; 300 mg/kg i.p.,1
same,Ulcer Grade 1 (number of rats),acetic acid ulcers; 250 mg/kg p.o. daily×10,4
same,Ulcer Grade 2 (number of rats),acetic acid ulcers; 250 mg/kg p.o. daily×10,8
same,Ulcer Grade 3 (number of rats),acetic acid ulcers; 250 mg/kg p.o. daily×10,3
same,Ulcer Grade 4 (number of rats),acetic acid ulcers; 250 mg/kg p.o. daily×10,2
same,Ulcer Grade 5 (number of rats),acetic acid ulcers; 250 mg/kg p.o. daily×10,0
same,Ulcer Grade 1 (number of rats),acetic acid ulcers; 300 mg/kg p.o. daily×10,2
same,Ulcer Grade 2 (number of rats),acetic acid ulcers; 300 mg/kg p.o. daily×10,2
same,Ulcer Grade 3 (number of rats),acetic acid ulcers; 300 mg/kg p.o. daily×10,2
same,Ulcer Grade 4 (number of rats),acetic acid ulcers; 300 mg/kg p.o. daily×10,1
same,Ulcer Grade 5 (number of rats),acetic acid ulcers; 300 mg/kg p.o. daily×10,1
same,Ulcer Grade 1 (number of rats),acetic acid ulcers; 500 mg/kg p.o. daily×10,7
same,Ulcer Grade 2 (number of rats),acetic acid ulcers; 500 mg/kg p.o. daily×10,6
same,Ulcer Grade 3 (number of rats),acetic acid ulcers; 500 mg/kg p.o. daily×10,1
same,Ulcer Grade 4 (number of rats),acetic acid ulcers; 500 mg/kg p.o. daily×10,0
same,Ulcer Grade 5 (number of rats),acetic acid ulcers; 500 mg/kg p.o. daily×10,1
same,Inhibition (%) Trypsin,trypsin,65%
"NC[C@H]1CC[C@H](C(=O)O)CC1 [Tranexamic acid, trans-4-aminomethylcyclohexane carboxylic acid]",anti-plasmin effects,plasmin,excellent anti-plasmin effects

# Source: US4348410A, “Cyclohexane carboxylic acid derivatives” (Nippon Chemiphar Co., Ltd., priority 1979, dated 1982)
